“And” between values parts separate entries of the source, which are not always exact repeats. Equal values may be shown once.
Legend:
Assay type in all cases: cell-based
[1] = biological target: T1, PSEN1 L172A–APH1A γ-secretase complex (Homo sapiens, UniProt P49768, L172A); experiment: Aβ40 secretion, MEF cell pool restored with PSEN1 L172A–APH1A; settings: for increase in binding affinity by alanine substitution of L172: PSEN1 L172A versus WT
T1 construct: expressed in transfected cells; host or cells: Psen1/2 double KO/Aph1ABC triple KO MEFs, pools without clonal selection
Method: (§1) We turned to experimental site–directed mutagenesis and selected a series of amino acids (Fig. 3) in the entrance channel for mutation to alanine. […] More importantly, they were all enzymatically active as shown by the secretion of Aβ40 in the supernatants of the cell cultures (Fig. 3B).
(§2) Conditional Psen1/2 double KO mice were crossed with conditional Aph1ABC triple KO mice ([29], [52], [58], [59]). At embryonic day 7.5, embryos were dissected and dissociated, and cells were plated in the presence of Dulbecco’s modified Eagle’s medium (DMEM)/F12 50% fetal calf serum (FCS) (Invitrogen). Primary MEFs were immortalized by transduction with LargeT antigen. Psen1/2 double KO/Aph1ABC triple KO MEFs were generated by transduction with a Cre-GFP–expressing adenoviral vector, and GFP-positive MEFs were sorted by fluorescence-activated cell sorting analysis. Psen1/2 Aph1ABC-deficient MEFs were maintained in DMEM/f12 10% FCS. To rescue γ-secretase expression, Psen1/2 double KO/Aph1ABC triple KO MEFs were transduced using Murine Stem Cell Virus retroviral vector system (pMSCV) viral vectors (Clontech) containing the human coding sequences of the different PSEN and APH1 homologs and the zeocin selection marker. An Internal Ribosome Entry Site sequence was cloned between the coding sequences for PSEN and APH1 to ensure co-expression of both proteins. Stable transfected cell lines were selected using 500-μg/ml zeocin (Invitrogen). Four different combinations were made: PSEN1 and APH1AL, PSEN1 and APH1B, PSEN2 and APH1AL, and PSEN2 and APH1B. These cell lines were transduced with pMSCV viral vectors (Clontech) expressing APP-C99-GFP-puromycin. After puromycin selection (5 μg/ml), GFP-positive cells were selected through FACS sorting. For the alanine mutagenesis experiment, pMSCV PSEN1-APH1A viral vectors were generated by using a long PCR-based QuikChange strategy (Stratagene). Stable cell lines without clonal selection were generated for each mutant as described above. All cell lines were regularly tested for the absence of mycoplasma and used for maximum 20 passages in culture.
The number of plated cells and incubation times were determined in respect to linearity of Aβ peptide secretion, the dynamic range of Aβ peptide quantification in the medium, and sensitivity to dimethylsulfoxide (DMSO). […] MEF cells were plated in DMEM F12 supplemented with 10% FCS at 10,000 cells per well in 96-well clear bottom plates in the late afternoon and cultured for 16 h at 37 °C, 5% CO2. In the morning of the second day, the medium was replaced with 60 μl of DMEM/F12 supplemented with 2% FCS, and GSI or DMSO (controls) were added. Compounds were tested in serial dilutions with concentrations ranging from […] to 0.1 nM with 3-fold changes. The final concentration of DMSO in all wells was 0.2%. Plates were put in the incubator again at 37 °C, 5% CO2. After 8 h, the culture media were collected, and 30 μl was used to measure Aβ40 peptides. The cell viability was assessed using the CellTiter-Glo Luminescent assay (Promega) that measures ATP production. All screens were performed at one site, and reported IC50 values throughout the manuscript are from this site (Beerse) unless otherwise indicated. We however measured five compounds at the Leuven site and noticed that absolute IC50 values were different (Fig. S2). The main goal of the current work is to explore the basis for inhibitor selectivity for different γ-secretases, and selectivity was consistent in the assays at the two sites (Fig. S2).
Standard 96-well SECTOR plates (MSD) were coated with 1.5 μg/ml anti-Aβ JRFcAβ40/28 capture antibody in a final volume of 50 μl of PBS 0.05% Tween 20. After overnight incubation at 4 °C, the plates were five times rinsed with PBS 0.05% Tween 20 and blocked with 150 μl per well of casein buffer (PBS with 1% casein, pH 7.4) for 4 h at room temperature. Standards (synthetic human Aβ 1–40) were diluted in culture media. […]

[2] = biological target: T2, PSEN1 I387A–APH1A γ-secretase complex (Homo sapiens, UniProt P49768, I387A); experiment: Aβ40 secretion, MEF cell pool restored with PSEN1 I387A–APH1A; settings: decimal comma; for IC50: PSEN1 I387A (TM7)–APH1A cell pool, N = 3 to 4, mean (95% CI)
T2 construct: expressed in transfected cells; host or cells: Psen1/2 double KO/Aph1ABC triple KO MEFs, pools without clonal selection
Method: as §1
as §2, with “After puromycin selection (5 μg/ml), GFP-positive cells were selected through FACS sorting. For the alanine mutagenesis experiment, pMSCV PSEN1-APH1A viral vectors were generated by using a long PCR-based QuikChange strategy (Stratagene). Stable cell lines without clonal selection were generated for each mutant as described above. All cell lines were regularly tested for the absence of mycoplasma and used for maximum 20 passages in culture.” left out
(§3) The number of plated cells and incubation times were determined in respect to linearity of Aβ peptide secretion, the dynamic range of Aβ peptide quantification in the medium, and sensitivity to dimethylsulfoxide (DMSO). […] The cell viability was assessed using the CellTiter-Glo Luminescent assay (Promega) that measures ATP production. […] We however measured five compounds at the Leuven site and noticed that absolute IC50 values were different (Fig. S2). […]

[3] = biological target: T3, PSEN1 M233A–APH1A γ-secretase complex (Homo sapiens, UniProt P49768, M233A); experiment: Aβ40 secretion, MEF cell pool restored with PSEN1 M233A–APH1A; settings: decimal comma; for IC50: PSEN1 M233A (TM5)–APH1A cell pool, N = 3 to 4, mean (95% CI)
T3 construct: expressed in transfected cells; host or cells: Psen1/2 double KO/Aph1ABC triple KO MEFs, pools without clonal selection
Method: as §1
as §2, with “After puromycin selection (5 μg/ml), GFP-positive cells were selected through FACS sorting. For the alanine mutagenesis experiment, pMSCV PSEN1-APH1A viral vectors were generated by using a long PCR-based QuikChange strategy (Stratagene). Stable cell lines without clonal selection were generated for each mutant as described above. All cell lines were regularly tested for the absence of mycoplasma and used for maximum 20 passages in culture.” left out
as §3

[4] = biological target: T4, PSEN1 L166A–APH1A γ-secretase complex (Homo sapiens, UniProt P49768, L166A); experiment: Aβ40 secretion, MEF cell pool restored with PSEN1 L166A–APH1A; settings: PSEN1 L166A (TM3)–APH1A cell pool; N = 3 to 4; mean (95% CI); decimal comma
T4 construct: expressed in transfected cells; host or cells: Psen1/2 double KO/Aph1ABC triple KO MEFs, pools without clonal selection
Method: as §1
(§4) Conditional Psen1/2 double KO mice were crossed with conditional Aph1ABC triple KO mice ([29], [52], [58], [59]). At embryonic day 7.5, embryos were dissected and dissociated, and cells were plated in the presence of Dulbecco’s modified Eagle’s medium (DMEM)/F12 50% fetal calf serum (FCS) (Invitrogen). Primary MEFs were immortalized by transduction with LargeT antigen. Psen1/2 double KO/Aph1ABC triple KO MEFs were generated by transduction with a Cre-GFP–expressing adenoviral vector, and GFP-positive MEFs were sorted by fluorescence-activated cell sorting analysis. Psen1/2 Aph1ABC-deficient MEFs were maintained in DMEM/f12 10% FCS. […]
as §3

[5] = biological target: T5, PSEN1 I229A–APH1A γ-secretase complex (Homo sapiens, UniProt P49768, I229A); experiment: Aβ40 secretion, MEF cell pool restored with PSEN1 I229A–APH1A; settings: decimal comma; for IC50: PSEN1 I229A (TM5)–APH1A cell pool, N = 3 to 4, mean (95% CI); for IC50 fold change to WT: PSEN1 I229A–APH1A cell pool
T5 construct: expressed in transfected cells; host or cells: Psen1/2 double KO/Aph1ABC triple KO MEFs, pools without clonal selection
Method: as §1, §2
as §3, with “(DMSO). […] MEF cells were plated in DMEM F12 supplemented with 10% FCS at 10,000 cells per well in 96-well clear bottom plates in the late afternoon and cultured for 16 h at 37 °C, 5% CO2.” for “(DMSO).”

[6] = biological target: T6, PSEN1 F388A–APH1A γ-secretase complex (Homo sapiens, UniProt P49768, F388A); experiment: Aβ40 secretion, MEF cell pool restored with PSEN1 F388A–APH1A; settings: decimal comma; for IC50: PSEN1 F388A (TM7)–APH1A cell pool, N = 3 to 4, mean (95% CI)
T6 construct: expressed in transfected cells; host or cells: Psen1/2 double KO/Aph1ABC triple KO MEFs, pools without clonal selection
Method: as §1
as §2, with “After puromycin selection (5 μg/ml), GFP-positive cells were selected through FACS sorting. For the alanine mutagenesis experiment, pMSCV PSEN1-APH1A viral vectors were generated by using a long PCR-based QuikChange strategy (Stratagene). Stable cell lines without clonal selection were generated for each mutant as described above. All cell lines were regularly tested for the absence of mycoplasma and used for maximum 20 passages in culture.” left out
as §3

[7] = biological target: T7, PSEN1 S169A–APH1A γ-secretase complex (Homo sapiens, UniProt P49768, S169A); experiment: Aβ40 secretion, MEF cell pool restored with PSEN1 S169A–APH1A; settings: PSEN1 S169A (TM3)–APH1A cell pool; N = 3 to 4; mean (95% CI); decimal comma
T7 construct: expressed in transfected cells; host or cells: Psen1/2 double KO/Aph1ABC triple KO MEFs, pools without clonal selection
Method: as §1, §4, §3

[8] = biological target: T8, PSEN1 S170A–APH1A γ-secretase complex (Homo sapiens, UniProt P49768, S170A); experiment: Aβ40 secretion, MEF cell pool restored with PSEN1 S170A–APH1A; settings: decimal comma; for IC50: PSEN1 S170A (TM3)–APH1A cell pool, N = 3 to 4, mean (95% CI)
T8 construct: expressed in transfected cells; host or cells: Psen1/2 double KO/Aph1ABC triple KO MEFs, pools without clonal selection
Method: as §1
as §2, with “After puromycin selection (5 μg/ml), GFP-positive cells were selected through FACS sorting. For the alanine mutagenesis experiment, pMSCV PSEN1-APH1A viral vectors were generated by using a long PCR-based QuikChange strategy (Stratagene). Stable cell lines without clonal selection were generated for each mutant as described above. All cell lines were regularly tested for the absence of mycoplasma and used for maximum 20 passages in culture.” left out
as §3

[9] = biological target: T9, PSEN1 L173A–APH1A γ-secretase complex (Homo sapiens, UniProt P49768, L173A); experiment: Aβ40 secretion, MEF cell pool restored with PSEN1 L173A–APH1A; settings: decimal comma; for IC50: PSEN1 L173A (TM3)–APH1A cell pool, N = 3 to 4, mean (95% CI)
T9 construct: expressed in transfected cells; host or cells: Psen1/2 double KO/Aph1ABC triple KO MEFs, pools without clonal selection
Method: as §1
as §2, with “After puromycin selection (5 μg/ml), GFP-positive cells were selected through FACS sorting. For the alanine mutagenesis experiment, pMSCV PSEN1-APH1A viral vectors were generated by using a long PCR-based QuikChange strategy (Stratagene). Stable cell lines without clonal selection were generated for each mutant as described above. All cell lines were regularly tested for the absence of mycoplasma and used for maximum 20 passages in culture.” left out
as §3

IC50 ([1]; PSEN1 L172A (TM3)–APH1A cell pool, N = 3 to 4, mean (95% CI), decimal comma)	increase in binding affinity by alanine substitution of L172 [1]	IC50 [2]	IC50 fold change to WT ([2]; PSEN1 I387A–APH1A cell pool)	IC50 [3]	IC50 fold change to WT ([3]; PSEN1 M233A–APH1A cell pool)	IC50 [4]	IC50 [5]	IC50 fold change to WT [5]	IC50 [6]	IC50 fold change to WT ([6]; PSEN1 F388A–APH1A cell pool)	IC50 [7]	IC50 [8]	IC50 fold change to WT ([8]; PSEN1 S170A–APH1A cell pool)	IC50 [9]	IC50 fold change to WT ([9]; PSEN1 L173A–APH1A cell pool)	SMILES
0.0036 µM	47 fold	0.882 µM	5,225 fold and > 3 fold	0.449 µM	2,658 fold	1.37 µM	0.334 µM	1,980 fold	0.277 µM	1,642 fold	0.026 µM	0.139 µM	0,821 fold	0.028 µM	–	C[C@H](NC(=O)Cc1cc(F)cc(F)c1)C(=O)N[C@H](C(=O)OC(C)(C)C)c1ccccc1 [DAPT]
–	3.1 fold	0.283 µM	–	0.462 µM	–	0.642 µM	0.042 µM	1,440 fold	0.403 µM	–	0.0078 µM	0.132 µM	–	0.077 µM	2,658 fold	O=S(=O)(c1ccc(Cl)cc1)N1[C@H]2CC[C@@H]([C@H]1c1ccc(C(F)(F)F)cc1)[C@@H](O)C2 [(+)-9b]

From PMC10318456, “Selective inhibitors of the PSEN1–gamma-secretase complex” (The Journal of Biological Chemistry, 2023)
